Source: US20190069542A1, “COMPOSITIONS AND METHODS FOR REPELLING AND KILLING TICKS AND DETACHMENT OF FEEDING TICKS” (EVOLVA SA, priority 2016, published 2019)
Several values for one entry are separate records, joined by “and”; a condition that tells them apart may be missing. Identical values can stand only once.

Assays:
ticks = test: Shell-vial bioassay of morbidity and mortality of ticks; assay type: in vivo; details: for LC50: calculated at 24 hours from Table No. 7
Method: Next, a shell-vial bioassay was performed to determine whether the nootkatone of the test products (i.e., space spray, lotion, and soap) lost biocidal activity due to the formulation process. The nootkatone derivatives from Example No. 1 were also tested to determine relative biocidal activity. Serial dilutions of each 2% product and nootkatone derivatives were made for a total of 8 concentrations per formulation/derivative. Controls included untreated controls and a nootkatone in acetone composition as a positive control. One hundred and fifty microliters of each concentration was added to a 1 dram glass shell vial and allowed to dry (see FIGS. 3A and 3B).
Each shell vial with ticks added was placed in a humid container, and morbidity and mortality of ticks were determined at 1 hr and 24 hr post-treatment. Each experiment was performed twice and the results averaged. […]

[1] = Solvent dissolution tests of nootkatone; assay type: physicochemical; details: data not shown
Method: Initially, solvent dissolution tests of nootkatone were performed.

Compound	# Alive/10 (ticks; 0.002%, 1 hr)	# Alive/10 (ticks; 0.002%, 24 hr)	# Alive/10 (ticks; 0.004%, 1 hr)	# Alive/10 (ticks; 0.004%, 24 hr)	# Alive/10 (ticks; 0.008%, 1 hr)	# Alive/10 (ticks; 0.008%, 24 hr)	# Alive/10 (ticks; 0.016%, 1 hr)	# Alive/10 (ticks; 0.016%, 24 hr)	# Alive/10 (ticks; 0.031%, 1 hr)	# Alive/10 (ticks; 0.031%, 24 hr)	# Alive/10 (ticks; 0.063%, 1 hr)	# Alive/10 (ticks; 0.063%, 24 hr)	# Alive/10 (ticks; 0.125%, 1 hr)	# Alive/10 (ticks; 0.125%, 24 hr)	# Alive/10 (ticks; 0.25%, 1 hr)	# Alive/10 (ticks; 0.25%, 24 hr)	LC50 (ticks) [%]	also measured
C=C(C)[C@@H]1CCC2CC(=O)C[C@@H](C)[C@]2(C)C1 (stereo partly shown) [1,10 dihydronootkatone, 1,10-dihydronootkatone]	10	9	10	10	10	6	10	6	10	3	10	1	10	2	10	1	0.0097	–
CC(C)C1CCC2=CC(=O)CC(C)C2(C)C1 (stereo not shown) [11,12 dihydronootkatone, 11,12-dihydronootkatone]	10	6	10	7	10	1	10	0	10	0	10	0	2	0	2	0	0.0071	–
C=C(C)[C@@H]1CCC2=CC(=O)C[C@@H](C)[C@]2(C)C1 [Nootkatone, nootkatone]	–	–	–	–	–	–	–	–	–	–	–	–	–	–	3 and 2	0	–	# Alive/10 (ticks; 0.01%, 1 hr): 7 and 5; # Alive/10 (ticks; 0.01%, 24 hr): 5 and 7; # Alive/10 (ticks; 0.02%, 1 hr): 5; # Alive/10 (ticks; 0.02%, 24 hr): 0; # Alive/10 (ticks; 0.03%, 1 hr): 4; # Alive/10 (ticks; 0.03%, 24 hr): 0; # Alive/10 (ticks; 0.06%, 1 hr): 4; # Alive/10 (ticks; 0.06%, 24 hr): 0; # Alive/10 (ticks; 0.13%, 1 hr): 4; # Alive/10 (ticks; 0.13%, 24 hr): 0; # Alive/10 (ticks; 0.5%, 24 hr): 0; LC50 (ticks; listed as Nootkatone control): 0.0074% and 0.0073%; dissolution of nootkatone in solvent ([1]; glycerin): unable to successfully dissolve; dissolution of nootkatone in solvent ([1]; water): unable to successfully dissolve
CC(C)[C@@H]1CCC2CC(=O)C[C@@H](C)[C@]2(C)C1 (stereo partly shown) [Tetrahydronootkatone, tetrahydronootkatone]	10	10	10	10	9	9	7	7	7	7	6	5	6	4	5	1	0.0780	–
